Data on three compounds can be found in publication PMC3445516 (PLoS ONE, 2012).

Holding throughout (assay): Ambit kinase profiling, competition binding
Assay [1] addresses T1, ADCK3 (Homo sapiens, UniProt Q8NI60).
T1 construct: purchased Ambit Biosciences (KINOMEscan)
The protocol: (§1) Also included in the kinase profile are four isoforms of PKC (δ, ε, η, θ) and eight isoforms of CAMKs (CAMKIα, δ, γ; CAMKIIα, β, δ, γ; CAMK4).
(§2) The global kinase profiling experiment was performed by Ambit Biosciences.

Assay [2] addresses T2, CDC2L2 (Homo sapiens, UniProt Q9UQ88).
T2 construct: purchased Ambit Biosciences (KINOMEscan)
T2 sequence (Q9UQ88 1-783): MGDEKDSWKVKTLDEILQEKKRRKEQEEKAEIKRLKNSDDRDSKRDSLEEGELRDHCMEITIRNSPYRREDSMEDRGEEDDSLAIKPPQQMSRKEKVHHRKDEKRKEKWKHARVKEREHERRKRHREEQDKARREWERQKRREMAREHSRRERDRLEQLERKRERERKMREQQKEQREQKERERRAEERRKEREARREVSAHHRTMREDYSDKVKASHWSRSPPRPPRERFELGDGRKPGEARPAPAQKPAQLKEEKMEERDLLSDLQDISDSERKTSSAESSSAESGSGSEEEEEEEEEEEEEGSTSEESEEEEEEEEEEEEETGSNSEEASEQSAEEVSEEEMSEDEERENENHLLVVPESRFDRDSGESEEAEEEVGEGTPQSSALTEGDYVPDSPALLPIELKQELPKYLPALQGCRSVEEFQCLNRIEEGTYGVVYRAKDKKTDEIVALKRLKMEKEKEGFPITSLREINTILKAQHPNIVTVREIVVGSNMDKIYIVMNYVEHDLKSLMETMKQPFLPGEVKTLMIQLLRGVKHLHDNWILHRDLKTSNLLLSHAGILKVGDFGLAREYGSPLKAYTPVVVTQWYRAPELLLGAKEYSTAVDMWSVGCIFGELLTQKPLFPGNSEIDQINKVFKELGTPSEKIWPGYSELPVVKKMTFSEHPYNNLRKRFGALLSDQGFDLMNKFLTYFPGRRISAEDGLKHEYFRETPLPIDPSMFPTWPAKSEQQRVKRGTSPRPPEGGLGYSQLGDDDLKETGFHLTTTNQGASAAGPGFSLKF
How it is done: as §1, §2

The target in assay [3] is T3, EGFR(L747-E749del, A750P) (Homo sapiens, UniProt P00533, A750P/DEL747-749).
T3 construct: purchased Ambit Biosciences (KINOMEscan)
The conditions noted are these: for % Competition: 10 µM. The protocol: as §1, §2

The target in assay [4] is T4, EGFR(S752-I759del) (Homo sapiens, UniProt P00533, DEL752-759).
T4 construct: purchased Ambit Biosciences (KINOMEscan)
The conditions noted are these: for % Competition: 10 µM. The protocol: as §1, §2

Assay [5] concerns the target T5, ERK4 (Homo sapiens, UniProt P31152).
T5 construct: purchased Ambit Biosciences (KINOMEscan)
How it is done: as §1, §2

Assay [6] addresses T6, FLT3(D835Y) (Homo sapiens, UniProt P36888, D835Y).
T6 construct: purchased Ambit Biosciences (KINOMEscan)
T6 sequence (P36888 27-993 D835Y): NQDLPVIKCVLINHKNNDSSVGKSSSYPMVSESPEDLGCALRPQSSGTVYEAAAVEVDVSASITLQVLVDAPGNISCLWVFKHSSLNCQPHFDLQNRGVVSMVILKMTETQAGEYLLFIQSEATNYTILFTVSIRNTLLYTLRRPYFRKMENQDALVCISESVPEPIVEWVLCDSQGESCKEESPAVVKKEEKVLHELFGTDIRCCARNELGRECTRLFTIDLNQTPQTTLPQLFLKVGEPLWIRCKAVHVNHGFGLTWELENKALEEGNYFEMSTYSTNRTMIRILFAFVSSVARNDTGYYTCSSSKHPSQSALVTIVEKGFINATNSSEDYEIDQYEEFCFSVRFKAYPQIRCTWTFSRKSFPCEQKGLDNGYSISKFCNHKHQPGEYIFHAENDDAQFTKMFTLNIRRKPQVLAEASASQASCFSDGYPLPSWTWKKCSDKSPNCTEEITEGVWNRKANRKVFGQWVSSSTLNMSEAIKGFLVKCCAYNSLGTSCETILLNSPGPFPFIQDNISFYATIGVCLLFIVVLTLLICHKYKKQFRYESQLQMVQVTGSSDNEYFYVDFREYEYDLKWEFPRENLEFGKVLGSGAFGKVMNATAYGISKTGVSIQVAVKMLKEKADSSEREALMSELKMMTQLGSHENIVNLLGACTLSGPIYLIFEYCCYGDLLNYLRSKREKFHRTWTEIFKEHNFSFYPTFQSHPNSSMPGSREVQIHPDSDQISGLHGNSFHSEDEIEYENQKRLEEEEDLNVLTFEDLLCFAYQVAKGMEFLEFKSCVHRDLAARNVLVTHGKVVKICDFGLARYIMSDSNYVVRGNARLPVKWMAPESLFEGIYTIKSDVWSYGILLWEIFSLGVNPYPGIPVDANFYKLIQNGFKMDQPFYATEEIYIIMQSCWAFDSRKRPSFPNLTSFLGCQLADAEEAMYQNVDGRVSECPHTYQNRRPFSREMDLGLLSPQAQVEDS
The protocol: as §1, §2

The target in assay [7] is T7, STK16 (Homo sapiens, UniProt O75716).
T7 construct: purchased Ambit Biosciences (KINOMEscan)
The protocol: as §1, §2

Each structure is given as a SMILES string. Like-named read-outs stand apart in the source and are kept apart here. Some results are limits rather than exact numbers.

T7 sequence (O75716 whole entry): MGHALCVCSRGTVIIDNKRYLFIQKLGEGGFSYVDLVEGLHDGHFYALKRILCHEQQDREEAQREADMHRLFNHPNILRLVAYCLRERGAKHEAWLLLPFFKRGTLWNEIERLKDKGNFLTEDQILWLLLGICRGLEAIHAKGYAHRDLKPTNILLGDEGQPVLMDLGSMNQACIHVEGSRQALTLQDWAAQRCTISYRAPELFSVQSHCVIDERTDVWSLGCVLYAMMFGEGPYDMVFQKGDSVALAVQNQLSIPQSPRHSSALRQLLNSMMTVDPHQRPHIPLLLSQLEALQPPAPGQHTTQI
T1 sequence (Q8NI60 163-647): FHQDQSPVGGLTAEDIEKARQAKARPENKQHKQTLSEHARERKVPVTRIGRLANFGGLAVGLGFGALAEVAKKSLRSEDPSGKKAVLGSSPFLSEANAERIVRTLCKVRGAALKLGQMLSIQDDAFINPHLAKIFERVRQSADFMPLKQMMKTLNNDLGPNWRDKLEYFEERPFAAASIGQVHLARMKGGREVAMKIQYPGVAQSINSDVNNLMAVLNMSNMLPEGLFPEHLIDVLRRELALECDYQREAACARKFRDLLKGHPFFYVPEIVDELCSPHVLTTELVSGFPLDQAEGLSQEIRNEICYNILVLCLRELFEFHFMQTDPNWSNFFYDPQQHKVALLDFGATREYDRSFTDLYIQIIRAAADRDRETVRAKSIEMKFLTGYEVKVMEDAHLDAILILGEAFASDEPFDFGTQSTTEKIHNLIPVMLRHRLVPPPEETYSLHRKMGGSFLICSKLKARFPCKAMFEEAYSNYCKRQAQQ
T5 sequence (P31152 whole entry): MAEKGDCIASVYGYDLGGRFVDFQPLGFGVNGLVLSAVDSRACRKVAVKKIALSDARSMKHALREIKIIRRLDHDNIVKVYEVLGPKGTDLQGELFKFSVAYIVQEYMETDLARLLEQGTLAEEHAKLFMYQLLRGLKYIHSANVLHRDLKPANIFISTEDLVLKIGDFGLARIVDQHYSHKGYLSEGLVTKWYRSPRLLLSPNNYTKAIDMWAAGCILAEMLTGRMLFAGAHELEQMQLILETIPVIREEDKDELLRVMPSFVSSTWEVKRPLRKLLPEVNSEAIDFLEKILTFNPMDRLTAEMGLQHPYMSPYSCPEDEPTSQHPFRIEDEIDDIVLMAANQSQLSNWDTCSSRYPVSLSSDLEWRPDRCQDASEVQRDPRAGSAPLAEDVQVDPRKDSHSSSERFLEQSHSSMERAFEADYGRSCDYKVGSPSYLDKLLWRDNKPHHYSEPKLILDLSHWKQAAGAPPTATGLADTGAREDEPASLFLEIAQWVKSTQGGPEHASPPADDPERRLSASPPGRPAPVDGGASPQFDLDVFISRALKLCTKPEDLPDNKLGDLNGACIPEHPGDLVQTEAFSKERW

As for `Fc1ccc(-c2c(-c3ccncc3)[nH]c3nccnc23)cc1` [Compound 122], the inhibition at 10 µM turned out to be 83% in assay [1] (ADCK3, 10 µM, read-out: % Competition); 92% in assay [2] (CDC2L2, 10 µM, read-out: % Competition); 68% in assay [5] (ERK4, 10 µM, read-out: % Competition); 76% in assay [6] (FLT3(D835Y), 10 µM, read-out: % Competition); 96% in assay [7] (STK16, 10 µM, read-out: % Competition). Moreover, the “% Competition” value in assay [3] and in assay [4] was 98% each time.
Consider `Fc1ccc(-c2c(-c3ccncc3)[nH]c3nccnc23)cc1` [RO1155697-000-005], for which the inhibition at 10 µM in assay [1] (ADCK3, compound concentration 10 uM, read-out: Percent Competition) stood at 83%; in assay [2] (CDC2L2, compound concentration 10 uM, read-out: Percent Competition), 92%; in assay [5] (ERK4, compound concentration 10 uM, read-out: Percent Competition), 68%; in assay [6] (FLT3(D835Y), compound concentration 10 uM, read-out: Percent Competition), 76%; in assay [7] (STK16, compound concentration 10 uM, read-out: Percent Competition) it was 96%. For the same compound, the “Percent Competition” value in assay [3] (compound concentration 10 uM) and in assay [4] (compound concentration 10 uM) was 98% throughout.
Regarding `CC(O)CNc1cc(-c2[nH]c3cccnc3c2-c2ccc(F)cc2)ccn1` (stereo not drawn) [Compound 140], the inhibition at 10 µM in assay [1] (read-out: % Competition) was 90%; in assay [2] (read-out: % Competition), less than 50%; in assay [5] (read-out: % Competition) it was less than 50%; in assay [6] (read-out: % Competition), less than 50%; in assay [7] (read-out: % Competition), less than 50%. The “% Competition” value in assay [3] is given as 90%; in assay [4], 91%.
